Measurements published in patent publication US7696165B2 (Albany Molecular Research, Inc., priority 2006, dated 2010).
In brackets after ≈: the same amount, converted by molar mass.

Tested on: concanavalin A (ConA)-stimulated murine splenocytes
Test: Concanavalin A-stimulated murine splenocyte assay ([3H]thymidine incorporation)
Format: cell-based, mouse (BALB/c)
Protocol: Male BALB/c mice, at 5 to 7 weeks of age, were sacrificed by CO2 inhalation. Spleens were removed and dissociated by pushing through a nylon cell strainer. The splenocytes were washed in RPMI 1640/5% fetal calf serum (FCS) and pelleted at 400×g. Red blood cells were then lysed by resuspending the cell pellet in ACK lysis buffer (150 mM NH4Cl, 1 mM KHCO3, 0.1 mM EDTA, 3 mL per spleen) for 10 min at room temperature. After pelleting at 400×g, the cells were washed by resuspending in RPMI 1640/5% FCS and repelleting. The cell pellet was resuspended in RPMI 1640/5% FCS and again passed through a cell strainer to remove cell aggregates. The cells were then counted and adjusted to 2×10^6 cells/ml in RPMI 1640/10% FCS/50 μM 2-mercaptoethanol. Cell viability was assessed by Trypan blue staining. […] The cells were cultured in a 37° C. CO2 incubator for 2 days and then pulsed with 1 μCi of [^3H]thymidine for 6 hours. Cells were harvested onto filtermats with a TomTec 96 well plate harvester and lysed with H2O. The filtermat and scintillation fluid were sealed in a plastic sleeve. [^3H]thymidine incorporation was measured with a Wallac Trilux plate counter. Initial screens were done at a fixed value of 100 ng/ml test compound. IC50s were calculated from 7 point concentration-response curves using graphPad software.

SMILES | IC50 [µg/mL] | immunosuppressive potency compared to cyclosporin A (FIG. 1, ConA stimulated murine splenocyte assay)
C/C=C\C#CC[C@@H](C)[C@@H](O)[C@H]1C(=O)N[C@@H](CC)C(=O)N(C)CC(=O)N(C)[C@@H](CC(C)C)C(=O)N[C@@H](C(C)C)C(=O)N(C)[C@@H](CC(C)C)C(=O)N[C@@H](C)C(=O)N[C@H](C)C(=O)N(C)[C@@H](CC(C)C)C(=O)N(C)[C@@H](CC(C)C)C(=O)N(C)[C@@H](C(C)C)C(=O)N1C [Example 14, cis-cyclosporin yne-ene] | 0.032 (≈ 0.0261 µM) | –
C#CC#CC[C@@H](C)[C@@H](O)[C@H]1C(=O)N[C@@H](CC)C(=O)N(C)CC(=O)N(C)[C@@H](CC(C)C)C(=O)N[C@@H](C(C)C)C(=O)N(C)[C@@H](CC(C)C)C(=O)N[C@@H](C)C(=O)N[C@H](C)C(=O)N(C)[C@@H](CC(C)C)C(=O)N(C)[C@@H](CC(C)C)C(=O)N(C)[C@@H](C(C)C)C(=O)N1C [Example 25, cyclosporine diyne] | 0.012 (≈ 0.00991 µM) | two times more potent over cyclosporin A
CC#CC#CC[C@@H](C)[C@@H](O)[C@H]1C(=O)N[C@@H](CC)C(=O)N(C)CC(=O)N(C)[C@@H](CC(C)C)C(=O)N[C@@H](C(C)C)C(=O)N(C)[C@@H](CC(C)C)C(=O)N[C@@H](C)C(=O)N[C@H](C)C(=O)N(C)[C@@H](CC(C)C)C(=O)N(C)[C@@H](CC(C)C)C(=O)N(C)[C@@H](C(C)C)C(=O)N1C [Example 27, cyclosporin diyne] | 0.012 (≈ 0.0098 µM) | –
C/C=C\C#CC#CC[C@@H](C)[C@@H](O)[C@H]1C(=O)N[C@@H](CC)C(=O)N(C)CC(=O)N(C)[C@@H](CC(C)C)C(=O)N[C@@H](C(C)C)C(=O)N(C)[C@@H](CC(C)C)C(=O)N[C@@H](C)C(=O)N[C@H](C)C(=O)N(C)[C@@H](CC(C)C)C(=O)N(C)[C@@H](CC(C)C)C(=O)N(C)[C@@H](C(C)C)C(=O)N1C [Example 35, cis-cyclosporin yne-yne-ene] | 0.077 (≈ 0.0616 µM) | –
